# In patent publication US5567704A, “R-enatiomerically pure hydroxylated xanthine compounds to treat baldness” (priority 1995, dated 1996):
# Assays:
# [1] = tested on: IL-1α release in peritoneal macrophages; test: IL-1α release in LPS activated PEC (ELISA); assay type: cell-based, murine; conditions: Mus musculus, Peritoneal macrophage, at 24 hours after LPS, FIG. 19, read-out: maximum inhibition of IL-1α release
# Procedure: Murine peritoneal exudate cell macrophages (PEC) were isolated by perfusion of mouse peritoneum and plated into 96-well trays at 5×10^5 cells per well. Cells were stimulated with 5 μg/ml Salmonella abortus equi -derived endotoxin (LPS; Sigma Chemical Co., L-1887) or […] IL-1α (Genzyme; Cambridge, Mass.) with or without the addition of CT1501R added to the cultures one hour prior to addition of the stimulus. At various times thereafter, supernatants were removed and levels of either TNF-α or IL-1α were assayed using commercial 96-well microtiter immunoassay kits (Genzyme; TNF; Endogen, Boston, Mass.; IL-1α) according to manufacturer's specifications. For the adhesion studies, early passage human umbilical vein endothelial cells (HUVEC) were obtained. from commercial suppliers (Clonetics, San Diego, Calif. or Cell Systems, Seattle, Wash.) and cultured in defined, Hepes buffered, serum free medium (Cell Systems, cat 301-180) supplemented with acidic FGF (Cell Systems cat 401-111). 4000 cells were plated into each well of a 96-well microtiter plate and allowed to incubate for 72 hrs at 37° C. […] After addition of […] Hanks Balanced Salt Solution (HBSS), the microtiter plate was then analyzed on a Millipore Cytofluor fluorescent plate reader (excitation 488 nm; emission 525 nm). […]
# [2] = endotoxin induced lethality in mice (survival); assay type: in vivo, mouse; conditions: mouse, in vivo, ip; CT1501R alone, no LPS, ten mice, same schedule
# Procedure: (§1) Animals were treated with 10 μg/gm of LPS (i.v.) Immediately following the LPS (t=0), 2 hrs after the LPS (t=2) or 4 hrs following LPS (t=4) the mice were treated with their first treatment of CT1501R (100 mg/kg, i.p.). The mice were treated with CT1501R three times per day thereafter, and animal survival was monitored.
# (§2) This example illustrates the effect of CT1501R on survival in mice given a lethal dose of endotoxin. We determined if CT1501R protects against endotoxin induced lethality in a murine model. Septic shock was modeled by endotoxin injection of 6-8 week old female Balb/c mice similar to previously published reports (Ashkenazi et al. Proc. Natl. Acad. Sci. U.S.A. 88: 10535-10539, 1991.) under protocols approved by the Animal Use Committee of the Biomembrane Institute, Seattle, Wash. Animals were injected intravaneously (i.v.) with an approximate LD100 dose (10 μg) of Salmonella abortus equi-derived endotoxin (Sigma Chemical Co., L-1887) in phosphate buffered saline (PBS). […] Control mice were injected at the same times with a similar volume of vehicle control (PBS). Survival was followed for at least 72 hours.
# (§3) Ten mice were treated each with PBS alone or CT1501R alone on the same schedule as the experimental mice. […] Endotoxin survival data were summarized from a total of six (6) independent experiments. Summary Table 1 details the results of each of the six experiments. In FIG. 5, each time point represents a minimum of three (3) experiments comprising at least twenty (20) mice per group. A probability analysis of the survival data using a Fisher's Exact One Tailed Test is given as Table 3. Significant protection was conferred if CT1501R was administered immediately after the LPS treatment. The cumulative percent survival at 72 hours post LPS treatment was 60% compared to 7% for the LPS-only treated animals (p=<0.0005; Table 3).
# [3] = tested on: Balb/c mice given a lethal dose of endotoxin; test: endotoxin induced lethality in mice (survival); assay type: in vivo, mouse; conditions: for cumulative percent survival: 72 hours post LPS
# Procedure: as §1, §2, §3
smiles,measurement,setting,value
"C[C@@H](O)CCCCn1c(=O)c2c(ncn2C)n(C)c1=O [CT1501R, (R)-1-(5-hydroxyhexyl)-3,7-dimethylxanthine]",inhibition at 250 µM,[1],~50%
same,survival,[2],100%
same,cumulative percent survival,[3]; CT1501R four hours after LPS,37%
same,cumulative percent survival,[3]; CT1501R immediately after LPS,60%
same,cumulative percent survival,[3]; CT1501R two hours after LPS,55%
same,adverse effects,"[3]; CT1501R alone, no LPS, ten mice, same schedule",no adverse effects noted
same,Survival (Number Surviving/Total),"[3]; Expt. 1, CT-1501R t = 0 Hr post LPS, 24 Hr post LPS",4/5
same,Survival (Number Surviving/Total),"[3]; Expt. 1, CT-1501R t = 0 Hr post LPS, 48 Hr post LPS",4/5
same,Survival (Number Surviving/Total),"[3]; Expt. 1, CT-1501R t = 0 Hr post LPS, 72 Hr post LPS",4/5
same,Survival (Number Surviving/Total),"[3]; Expt. 1, CT-1501R t = 2 Hr post LPS, 24 Hr post LPS",4/5
same,Survival (Number Surviving/Total),"[3]; Expt. 1, CT-1501R t = 2 Hr post LPS, 48 Hr post LPS",3/5
same,Survival (Number Surviving/Total),"[3]; Expt. 1, CT-1501R t = 2 Hr post LPS, 72 Hr post LPS",3/5
same,Survival (Number Surviving/Total),"[3]; Expt. 2, CT-1501R t = 0 Hr post LPS, 24 Hr post LPS",5/5
same,Survival (Number Surviving/Total),"[3]; Expt. 2, CT-1501R t = 0 Hr post LPS, 48 Hr post LPS",5/5
same,Survival (Number Surviving/Total),"[3]; Expt. 2, CT-1501R t = 0 Hr post LPS, 72 Hr post LPS",5/5
same,Survival (Number Surviving/Total),"[3]; Expt. 2, CT-1501R t = 2 Hr post LPS, 24 Hr post LPS",5/5
same,Survival (Number Surviving/Total),"[3]; Expt. 2, CT-1501R t = 2 Hr post LPS, 48 Hr post LPS",5/5
same,Survival (Number Surviving/Total),"[3]; Expt. 2, CT-1501R t = 2 Hr post LPS, 72 Hr post LPS",5/5
same,Survival (Number Surviving/Total),"[3]; Expt. 3, CT-1501R t = 4 Hr post LPS, 24 Hr post LPS",5/5
same,Survival (Number Surviving/Total),"[3]; Expt. 3, CT-1501R t = 4 Hr post LPS, 48 Hr post LPS",3/5
same,Survival (Number Surviving/Total),"[3]; Expt. 3, CT-1501R t = 4 Hr post LPS, 72 Hr post LPS",3/5
same,Survival (Number Surviving/Total),"[3]; Expt. 4, CT-1501R t = 4 Hr post LPS, 24 Hr post LPS",7/10
same,Survival (Number Surviving/Total),"[3]; Expt. 4, CT-1501R t = 4 Hr post LPS, 48 Hr post LPS",5/10
same,Survival (Number Surviving/Total),"[3]; Expt. 4, CT-1501R t = 4 Hr post LPS, 72 Hr post LPS",5/10
same,Survival (Number Surviving/Total),"[3]; Expt. 5, CT-1501R t = 0 Hr post LPS, 24 Hr post LPS",9/10
same,Survival (Number Surviving/Total),"[3]; Expt. 5, CT-1501R t = 0 Hr post LPS, 48 Hr post LPS",7/10
same,Survival (Number Surviving/Total),"[3]; Expt. 5, CT-1501R t = 0 Hr post LPS, 72 Hr post LPS",3/10
same,Survival (Number Surviving/Total),"[3]; Expt. 5, CT-1501R t = 2 Hr post LPS, 24 Hr post LPS",5/10
same,Survival (Number Surviving/Total),"[3]; Expt. 5, CT-1501R t = 2 Hr post LPS, 48 Hr post LPS",3/10
same,Survival (Number Surviving/Total),"[3]; Expt. 5, CT-1501R t = 2 Hr post LPS, 72 Hr post LPS",3/10
same,Survival (Number Surviving/Total),"[3]; Expt. 5, CT-1501R t = 4 Hr post LPS, 24 Hr post LPS",7/10
same,Survival (Number Surviving/Total),"[3]; Expt. 5, CT-1501R t = 4 Hr post LPS, 48 Hr post LPS",4/10
same,Survival (Number Surviving/Total),"[3]; Expt. 5, CT-1501R t = 4 Hr post LPS, 72 Hr post LPS",2/10
same,Survival (Number Surviving/Total),"[3]; Expt. 6, CT-1501R t = 4 Hr post LPS, 24 Hr post LPS",3/10
same,Survival (Number Surviving/Total),"[3]; Expt. 6, CT-1501R t = 4 Hr post LPS, 48 Hr post LPS",3/10
same,Survival (Number Surviving/Total),"[3]; Expt. 6, CT-1501R t = 4 Hr post LPS, 72 Hr post LPS",3/10
same,survival compared with published results of Genentech's bifunctional TNF receptor,"[3]; drug simultaneously or two hours after lethal LPS, FIGS. 15 and 16",consistently was better at improving survival than Genentech's TNF receptor
same,Cumulative survival (Number Surviving/Total),"[3]; n = 3 expts, CT-1501R t = 0 Hr post LPS, 24 Hr post LPS",18/20
same,Cumulative survival (Number Surviving/Total),"[3]; n = 3 expts, CT-1501R t = 0 Hr post LPS, 48 Hr post LPS",16/20
same,Cumulative survival (Number Surviving/Total),"[3]; n = 3 expts, CT-1501R t = 0 Hr post LPS, 72 Hr post LPS",12/20
same,Cumulative survival (Number Surviving/Total),"[3]; n = 3 expts, CT-1501R t = 2 Hr post LPS, 24 Hr post LPS",14/20
same,Cumulative survival (Number Surviving/Total),"[3]; n = 3 expts, CT-1501R t = 2 Hr post LPS, 48 Hr post LPS",11/20
same,Cumulative survival (Number Surviving/Total),"[3]; n = 3 expts, CT-1501R t = 2 Hr post LPS, 72 Hr post LPS",11/20
same,Cumulative survival (Number Surviving/Total),"[3]; n = 4 expts, CT-1501R t = 4 Hr post LPS, 24 Hr post LPS",22/35
same,Cumulative survival (Number Surviving/Total),"[3]; n = 4 expts, CT-1501R t = 4 Hr post LPS, 48 Hr post LPS",15/35
same,Cumulative survival (Number Surviving/Total),"[3]; n = 4 expts, CT-1501R t = 4 Hr post LPS, 72 Hr post LPS",13/35
